{"source": "paper PMC8844822", "about": "“SARM1 is a multi-functional NAD(P)ase with prominent base exchange activity, all regulated bymultiple physiologically relevant NAD metabolites” (iScience, 2022)", "key": {"[1]": {"target": "T1, Aplysia californica ADP ribosyl cyclase (Aplysia californica, UniProt P29241)", "T1 sequence (P29241 25-282)": "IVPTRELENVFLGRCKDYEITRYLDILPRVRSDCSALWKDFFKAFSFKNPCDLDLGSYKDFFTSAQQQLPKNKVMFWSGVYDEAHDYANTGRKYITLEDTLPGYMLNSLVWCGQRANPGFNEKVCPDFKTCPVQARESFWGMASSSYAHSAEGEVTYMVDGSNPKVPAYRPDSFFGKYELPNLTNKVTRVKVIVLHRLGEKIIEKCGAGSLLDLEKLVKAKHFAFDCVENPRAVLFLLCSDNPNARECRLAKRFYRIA", "experimental": "(§1) hSARM1 species were routinely assayed by the NAD/NADH-Glo^TM Assay (Promega) while both Aplysia cyclase and CD38 were assayed by fluorometry using ϵNAD ([Orsomando et al., 2000]). […] Other reagents used in addition to, or in place of those above are detailed in text or in figure legends, for example metal ions, free bases, dinucleotide analogues, mononucleotides, and ribosides. Assays were all carried out at 25°C except for temperature studies. Reactions were stopped by HClO4/K2CO3 and analysed by C18-HPLC as reported ([Mori et al., 2014]). Only the acid labile NADH and NADPH were treated with 1 N NaOH and neutralized using 1:1 vol of 1.73 M KH2CO3 while the highly hydrophobic metabolites vacor, VAD, VMN and VR, were analysed by a modified C18-HPLC method ([Buonvicino et al., 2018]). Reaction products were quantified from peak areas (see Figure 2A) based on coelution with standards (except for cyclic products from NAD analogues that were not available and were attributed based on UV-spectra and retention times as predicted). Rates were calculated as follows. Hydrolysis and cyclization were measured from product generation from the respective individual dinucleotide substrate used, e.g., free and cyclic ADP-ribosyl moieties from NAD (Figure 1B). A basal value for hydrolysis/cyclization was taken as sum of these latter two products. In addition to that value, base exchange or transglycosidation was calculated from the expected dinucleotide analog formed in the presence of the corresponding free base, e.g., AcPyrAD from AcPyr and NAD.\n(§2) The kinetic parameters were calculated from initial rates obtained from replicates via best-fitting analysis using the following Equation 1 for CD38 and Aplysia cyclase, or Equation 2 for hSARM1 SAM-TIR, or Equation 3 for hSARM1 full length(Equation 1) V =Vmax[S]/Km+[S] […] In that case, the resulting single curves were fit to Equation 3 as above to evaluate any competition between NMN and the substrate used (see Table 1)."}, "[2]": {"target": "T2, hCD38 (Homo sapiens, UniProt P28907)", "T2 construct": "a soluble fragment Val43-Ile300 with 6x-His tag at C terminus; 6xHis (C); purchased R&D Systems", "T2 sequence (P28907 43-300)": "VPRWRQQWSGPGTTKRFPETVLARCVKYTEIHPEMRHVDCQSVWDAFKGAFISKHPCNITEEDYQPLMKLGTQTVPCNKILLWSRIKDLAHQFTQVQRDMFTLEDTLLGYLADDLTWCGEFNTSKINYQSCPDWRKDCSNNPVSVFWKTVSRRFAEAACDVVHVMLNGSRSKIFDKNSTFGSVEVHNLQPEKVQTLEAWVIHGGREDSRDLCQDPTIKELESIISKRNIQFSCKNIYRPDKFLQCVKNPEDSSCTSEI", "experiment": "NAD(P)ase activity by HPLC (kinetics, substrates, metal ions)", "type": "biochemical", "experimental": "as §1, §2"}, "[3]": {"target": "T3, hSARM1 full length (Homo sapiens, UniProt Q6SZW1)", "T3 construct": "Human recombinant SARM1 full length proteins (wild-type and E642A mutant); made in house", "T3 sequence (Q6SZW1 28-724)": "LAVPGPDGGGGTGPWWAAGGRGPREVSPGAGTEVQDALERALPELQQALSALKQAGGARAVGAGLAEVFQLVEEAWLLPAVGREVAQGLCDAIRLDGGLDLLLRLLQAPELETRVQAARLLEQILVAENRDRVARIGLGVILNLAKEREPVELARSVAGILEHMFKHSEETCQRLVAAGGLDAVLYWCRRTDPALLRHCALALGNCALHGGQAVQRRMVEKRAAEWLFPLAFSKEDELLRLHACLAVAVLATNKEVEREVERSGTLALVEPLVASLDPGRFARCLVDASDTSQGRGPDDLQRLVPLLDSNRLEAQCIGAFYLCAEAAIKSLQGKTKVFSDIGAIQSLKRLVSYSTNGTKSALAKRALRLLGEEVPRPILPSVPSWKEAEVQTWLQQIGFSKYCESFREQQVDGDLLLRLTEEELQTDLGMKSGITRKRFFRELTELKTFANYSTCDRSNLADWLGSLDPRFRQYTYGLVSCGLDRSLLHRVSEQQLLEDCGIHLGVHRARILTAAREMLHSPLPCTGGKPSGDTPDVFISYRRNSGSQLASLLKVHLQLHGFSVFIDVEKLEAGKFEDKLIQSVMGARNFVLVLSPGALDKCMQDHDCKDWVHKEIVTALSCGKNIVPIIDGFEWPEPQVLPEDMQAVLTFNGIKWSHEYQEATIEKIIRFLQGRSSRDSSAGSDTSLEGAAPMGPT", "experiment": "NAD(P)ase activity by HPLC (kinetics, substrates, metal ions)", "type": "biochemical", "settings": "for basal rate: substrate alone […]", "experimental": "as §1, §2"}, "[4]": {"target": "T4, hSARM1 SAM-TIR (Homo sapiens, UniProt Q6SZW1)", "T4 construct": "made in house", "T4 sequence (Q6SZW1 409-724)": "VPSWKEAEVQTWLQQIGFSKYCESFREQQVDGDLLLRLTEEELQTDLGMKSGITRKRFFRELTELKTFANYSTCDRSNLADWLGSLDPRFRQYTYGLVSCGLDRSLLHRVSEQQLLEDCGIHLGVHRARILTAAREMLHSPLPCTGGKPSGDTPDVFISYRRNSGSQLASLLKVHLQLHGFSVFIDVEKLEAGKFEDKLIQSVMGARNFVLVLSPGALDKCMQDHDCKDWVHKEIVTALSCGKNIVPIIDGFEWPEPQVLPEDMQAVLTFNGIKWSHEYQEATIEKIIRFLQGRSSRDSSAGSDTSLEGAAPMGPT", "type": "biochemical", "experimental": "as §1, with “In addition to that value, base exchange or transglycosidation was calculated from the expected dinucleotide analog formed in the presence of the corresponding free base, e.g., AcPyrAD from AcPyr and NAD.” left out"}, "[5]": {"target": "T2, hCD38", "experiment": "Base exchange reactions at neutral pH (HPLC)", "type": "biochemical", "settings": "NAD […] alone or + AcPyr 2 mM / Vacor 0.5 mM / Na 2 mM", "experimental": "(§3) Multiple time stops from individual assays as above were analyzed for linearity, then extents of hydrolysis (white bars), cyclization (red bars), or base exchange (black bars) were calculated from each corresponding product as shown in Figure 1B and STAR methods. […] See also Figures S3–S5, and Table S1\nas §1"}, "[6]": {"target": "T3, hSARM1 full length", "experiment": "Base exchange reactions at neutral pH (HPLC)", "type": "biochemical", "settings": "hSARM1 full length, no trigger; NAD […] alone or + AcPyr 2 mM / Vacor 0.5 mM / Na 2 mM; pH 7.5", "experimental": "as §3, §1"}, "[7]": {"target": "T4, hSARM1 SAM-TIR", "experiment": "Base exchange reactions at neutral pH (HPLC)", "type": "biochemical", "settings": "NAD […] alone or + AcPyr 2 mM / Vacor 0.5 mM / Na 2 mM", "experimental": "as §3\n(§4) Rates were calculated as follows."}, "[8]": {"target": "T1, Aplysia californica ADP ribosyl cyclase", "experiment": "Base exchange reactions at neutral pH (HPLC)", "type": "biochemical", "set-up": "purchased Merck A8950", "settings": "NAD […] alone or + AcPyr 2 mM / Vacor 0.5 mM / Na 2 mM", "experimental": "as §3, §4"}}, "note": "Read-outs that look alike come from different tables or passages of the source.", "data": [{"smiles": "NC(=O)c1ccc[n+]([C@@H]2O[C@H](COP(=O)([O-])OP(=O)(O)OC[C@H]3O[C@@H](n4cnc5c(N)ncnc54)[C@H](O)[C@@H]3O)[C@@H](O)[C@H]2O)c1", "note": "[NAD, nicotinamide adenine dinucleotide]", "values": [{"measurement": "cyclization, share of NAD consumption", "setting": "[1]", "value": "> 98", "unit": "%"}, {"measurement": "specific activity, basal NADase (hydrolysis or cyclization combined)", "setting": "[1]; saturating NAD", "value": "~50", "unit": "U/mg"}, {"measurement": "hydrolysis, share of NAD consumption", "setting": "[2]; hCD38", "value": "> 98", "unit": "%"}, {"measurement": "specific activity, basal NADase (hydrolysis or cyclization combined)", "setting": "[2]; hCD38, saturating NAD", "value": "~7", "unit": "U/mg"}, {"measurement": "Ki", "setting": "[3]; SARM1, read-out: Kia", "value": "~300", "unit": "µM"}, {"measurement": "cyclization, share of total substrate consumption", "setting": "[3]; hSARM1, no free pyridines", "value": "~10", "unit": "%"}, {"measurement": "hydrolysis, share of substrate consumption", "setting": "[3]; hSARM1, no free pyridines", "value": "~90", "unit": "%"}, {"measurement": "specific activity, basal NADase (hydrolysis or cyclization combined)", "setting": "[3]; hSARM1, saturating NAD", "value": "~0.02", "unit": "U/mg"}, {"measurement": "basal rate", "setting": "[3]; hSARM1 full length 14.6 µg/ml, 30 min, 25 °C (Figure S2)", "value": 15.8, "unit": "mU/mg"}, {"measurement": "Kis (catalytic site)", "setting": "[3]; hSARM1 full length +NMN 5μM, n=1", "value": ">8000", "unit": "µM"}, {"measurement": "Ki", "setting": "[3]; hSARM1 full length +NMN 5μM, n=1, read-out: Kia (allosteric site)", "value": 385, "unit": "µM"}, {"measurement": "Kis (catalytic site)", "setting": "[3]; hSARM1 full length +NMN 10μM, n=1", "value": ">8000", "unit": "µM"}, {"measurement": "Ki", "setting": "[3]; hSARM1 full length +NMN 10μM, n=1, read-out: Kia (allosteric site)", "value": 415, "unit": "µM"}, {"measurement": "Kis (catalytic site)", "setting": "[3]; hSARM1 full length +NMN 20μM, n=1", "value": ">8000", "unit": "µM"}, {"measurement": "Ki", "setting": "[3]; hSARM1 full length +NMN 20μM, n=1, read-out: Kia (allosteric site)", "value": 787, "unit": "µM"}, {"measurement": "Kis (catalytic site)", "setting": "[3]; hSARM1 full length +NMN 50μM, n=1", "value": ">8000", "unit": "µM"}, {"measurement": "Ki", "setting": "[3]; hSARM1 full length +NMN 50μM, n=1, read-out: Kia (allosteric site)", "value": 1200, "unit": "µM"}, {"measurement": "basal rate", "setting": "[3]; hSARM1 full length WT 5.4 µg/ml, 6 hours, 25 °C (Figure S3)", "value": 26.4, "unit": "mU/mg"}, {"measurement": "Kis (inhibition, catalytic site on TIR domain)", "setting": "[3]; hSARM1 full length, no NMN", "value": ">8000", "unit": "µM"}, {"measurement": "Ki", "setting": "[3]; hSARM1 full length, no NMN, read-out: Kia (inhibition, allosteric site on ARM domain)", "value": "324 ± 24.6", "unit": "µM"}, {"measurement": "NAD concentration at maximum NADase activity", "setting": "[3]; hSARM1 full length, activity falls to almost zero at 4 mM", "value": 0.25, "unit": "mM"}, {"measurement": "Kis (inhibition, catalytic site)", "setting": "[4]", "value": ">8000", "unit": "µM"}, {"measurement": "rate", "setting": "[5]", "value": "7798 ±1624", "unit": "mU/mg"}, {"measurement": "rate", "setting": "[6]", "value": "21.8 ±0.30", "unit": "mU/mg"}, {"measurement": "rate", "setting": "[7]", "value": "342.4 ±56.3", "unit": "mU/mg"}, {"measurement": "rate", "setting": "[8]", "value": "14712 ±399", "unit": "mU/mg"}]}]}
